Laboratory results from patent US20230151034A1 (COCRYSTAL PHARMA, INC., priority 2020, published 2023).
Like-named read-outs stand apart in the source and are kept apart here.

Tests used:
[1] = target: HuNV GGII.4 Norovirus protease (Norovirus GII.4 (human norovirus genogroup II genotype 4), UniProt P54634); assay: Norovirus protease FRET assay (HuNV GGII.4); type: biochemical
[2] = target: Norwalk GGI.1 Norovirus protease (Norovirus, UniProt Q83883); assay: Noro-Norwalk FRET protease assay (Norwalk GGI.1); type: biochemical, Norwalk virus
How it was run: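 Purified norovirus protease was mixed with inhibitor and FRET peptide substrate (Edans-DFHLQ/GP-Dabcyl, or 5-FAM/TAMRA peptide at 10 μM), and IC50 came from fluorescence. Norwalk assay: 1-7 μM protease, HEPES pH 8 with DTT, 90 min at 37° C, 200 μM–10.2 nM compound, ex 473/em 519 nm.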

SARS2 protease = SARS2 protease (Severe acute respiratory syndrome coronavirus 2, UniProt P0DTD1); assay: SARS-CoV-2 protease inhibition assay (SARS2 FRET protease assay); type: biochemical
How it was run: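 SARS-CoV-2 protease (25 nM) was incubated for 30 min at 30 °C with 1.3 μM quenched 5-FAM/TAMRA peptide substrate and compound (3-fold dilutions, 20 μM–1.0 nM). The buffer was 20 mM HEPES-Na pH 7, 120 mM NaCl, 0.4 mM EDTA, 0.01% Triton, 5% glycerol and 4 mM DTT. Fluorescence was read at ex 473 and em 519 nm, and IC50 was derived.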

[3] = Table C, FRET protease assay, read-out: HuNV GGII.4 IC50
[4] = Table C, FRET protease assay, read-out: Norwalk GGI.1 IC50
[5] = Table E, SARS-CoV-2 protease inhibition, read-out: IC50
[6] = Table D, FRET protease assay, read-out: HuNV GGII.4 IC50
[7] = Table D, FRET protease assay, read-out: Norwalk GGI.1 IC50

Sequence of Norwalk GGI.1 Norovirus protease (Q83883 1101-1281): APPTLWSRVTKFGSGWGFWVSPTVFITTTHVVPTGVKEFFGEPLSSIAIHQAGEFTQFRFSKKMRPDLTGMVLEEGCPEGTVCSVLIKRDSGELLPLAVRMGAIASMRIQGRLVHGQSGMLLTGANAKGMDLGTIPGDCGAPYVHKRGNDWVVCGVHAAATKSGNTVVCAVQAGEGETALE
Sequence of HuNV GGII.4 Norovirus protease (P54634 1009-1189): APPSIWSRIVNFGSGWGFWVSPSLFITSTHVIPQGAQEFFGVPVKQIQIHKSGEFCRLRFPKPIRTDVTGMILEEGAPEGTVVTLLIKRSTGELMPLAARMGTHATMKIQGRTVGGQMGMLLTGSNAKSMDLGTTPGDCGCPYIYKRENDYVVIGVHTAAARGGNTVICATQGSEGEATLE

| Structure (SMILES) | IC50 [1, 3] | IC50 [2, 4] | IC50 (SARS2 protease; [5]) | IC50 [1, 6] | IC50 [2, 7] | IC50 [1] | IC50 [2] | IC50 (SARS2 protease) |
| --- | --- | --- | --- | --- | --- | --- | --- | --- |
| CCOP(=O)(OCC)C(O)[C@H](CCC(=O)N1CCOC(c2ccccc2)C1)NC(=O)[C@H](CC1CCCCC1)NC(=O)OCc1cccc(Cl)c1 (stereo partly drawn) [Compound A54, 3-Chlorobenzyl ((2S)-3-cyclohexyl-1-(((2S)-1-(diethoxyphosphoryl)-1-hydroxy-5-oxo-5-(2-phenylmorpholino)pentan-2-yl)amino)-1-oxopropan-2-yl)carbamate] | 161 µM | 36.3 µM | 19 µM |  |  |  |  |  |
| CN(CCc1ccccc1Cl)C(=O)CC[C@@H](C=O)NC(=O)[C@H](CC1CCCCC1)NC(=O)OCc1cccc(Cl)c1 [Compound A105, 3-Chlorobenzyl ((S)-1-(((S)-5-((2-chlorophenethyl)(methyl)amino)-1,5-dioxopentan-2-yl)amino)-3-cyclohexyl-1-oxopropan-2-yl)carbamate] | 155 µM | 28.2 µM | > 200 µM |  |  |  |  |  |
| CCCCCCCC1CCC/C=C/CC(C(=O)N(C)C)C[C@@H](C=O)NC(=O)C(CC(C)C)NC1=O (stereo partly drawn) [Compound B4] |  |  | 156 µM | 149 µM | 149 µM |  |  |  |
| CCCC1CCCC/C=C/CC(C(=O)N(C)Cc2ccc(OC)cc2OC)C[C@@H](C(O)P(=O)(OCC)OCC)NC(=O)[C@H](CC(C)C)NC1=O (stereo partly drawn) [Compound B25, Diethyl (((2S,5S,E)-7-((2,4-dimethoxybenzyl)(methyl)carbamoyl)-2-isobutyl-3,16-dioxo-15-propyl-1,4-diazacyclohexadec-9-en-5-yl)(hydroxy)methyl)phosphonate] |  |  |  |  |  | 177 µM | 177 µM | > 200 µM |
| CCOP(=O)(OCC)C(O)[C@@H]1CC(C(=O)NC)C/C=C/CCC(Cc2ccccc2)OC(=O)N[C@@H](CC(C)C)C(=O)N1 (stereo partly drawn) [Compound B27, Diethyl (((4S,7S,E)-15-benzyl-4-isobutyl-9-(methylcarbamoyl)-2,5-dioxo-1-oxa-3,6-diazacyclopentadec-11-en-7-yl)(hydroxy)methyl)phosphonate] |  |  | > 200 µM | 57.9 µM | 57.9 µM |  |  |  |
